Measurements from patent publication US11564928B1, “Cannabinoid receptor type 2 (CB2) modulators and uses thereof” (Teon Therapeutics, Inc., priority 2020, dated 2023).
Where two headings read alike, the source gives them in different places.

What was measured:
human CB2 receptor = human CB2 receptor (Homo sapiens (Human), UniProt P34972); assay: CB2 receptor binding assay ([3H]CP-55,940 displacement, HEK-293 membranes)
human recombinant CB1R = human recombinant CB1R (Homo sapiens (Human), UniProt P21554); assay: CB1 receptor binding assay ([3H]CP-55,940 displacement, HEK-293 membranes)
human recombinant CB1R, sequence (P21554 whole entry): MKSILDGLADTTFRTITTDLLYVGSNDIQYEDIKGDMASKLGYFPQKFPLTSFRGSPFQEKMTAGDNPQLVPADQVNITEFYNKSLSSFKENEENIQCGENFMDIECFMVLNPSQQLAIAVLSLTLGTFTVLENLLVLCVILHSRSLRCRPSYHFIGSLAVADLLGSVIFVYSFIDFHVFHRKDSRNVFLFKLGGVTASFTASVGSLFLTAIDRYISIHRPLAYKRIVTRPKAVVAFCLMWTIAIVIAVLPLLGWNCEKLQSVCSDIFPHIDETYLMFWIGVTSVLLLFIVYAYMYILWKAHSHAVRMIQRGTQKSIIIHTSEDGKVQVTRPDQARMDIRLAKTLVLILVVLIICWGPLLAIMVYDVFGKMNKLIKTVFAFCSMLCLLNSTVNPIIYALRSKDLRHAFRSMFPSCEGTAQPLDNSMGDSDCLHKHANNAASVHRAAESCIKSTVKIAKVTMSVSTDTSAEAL
In short: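 Displacement of [3H]CP-55,940 was measured on human CB1R- or CB2R-transfected HEK-293 membranes after 120 min at 37 °C, in duplicate, with filtration and scintillation counting. For CB2R, incubation used Tris-HCl 50 mM, MgCl2 5 mM, CaCl2 1 mM, BSA 0.2%, pH 7.4. Ki values were derived from variable-slope IC50 fits using Cheng–Prusoff.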

[1] = membranes of HEK-293 cells with human recombinant CB2R, [3H]CP-55,940, class symbols, read-out: CB2 IC50
[2] = membranes of HEK-293 cells with human recombinant CB1R, [3H]CP-55,940, class symbols, read-out: CB1 IC50

human CB2 receptor, sequence (P34972 whole entry): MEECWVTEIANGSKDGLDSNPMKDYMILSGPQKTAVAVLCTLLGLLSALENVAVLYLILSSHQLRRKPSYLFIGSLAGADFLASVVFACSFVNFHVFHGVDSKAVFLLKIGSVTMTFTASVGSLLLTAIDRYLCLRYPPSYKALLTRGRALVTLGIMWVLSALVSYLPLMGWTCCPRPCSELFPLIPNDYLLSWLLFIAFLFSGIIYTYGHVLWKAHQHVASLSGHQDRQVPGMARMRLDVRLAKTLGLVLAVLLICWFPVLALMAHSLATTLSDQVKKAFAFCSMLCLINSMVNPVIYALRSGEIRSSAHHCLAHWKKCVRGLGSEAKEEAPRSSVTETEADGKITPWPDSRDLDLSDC

Row | SMILES | IC50 (human CB2 receptor; [1]) [nM] | IC50 (human recombinant CB1R; [2]) [nM] | IC50 (human CB2 receptor) [nM] | also measured
1 | O=C(NC1CC2(CCC2)C1)c1cc2cc(-c3ccc(F)cc3)cnc2n(Cc2cccnc2)c1=O [Compound 97, 6-(4-fluorophenyl)-2-oxo-1-(pyridin-3-ylmethyl)-N-(spiro[3.3]heptan-2-yl)-1,2-dihydro-1,8-naphthyridine-3-carboxamide] | < 100 | > 1000 |  | 
2 | COc1ccc(-c2cnc3c(c2)c(C)c(C(=O)NC2CCC(C)CC2)c(=O)n3Cc2ccc(F)cc2)cc1 (stereo not shown) [Compound 80, 1-(4-fluorobenzyl)-6-(4-methoxyphenyl)-4-methyl-N-(4-methylcyclohexyl)-2-oxo-1,2-dihydro-1,8-naphthyridine-3-carboxamide] |  | > 1000 | 100 to 999 | 
3 | N#Cc1ccc(-c2cnc3c(c2)c(O)c(C(=O)NC2CC4(CCC4)C2)c(=O)n3CCN2CCOCC2)nc1 [Compound 22, 6-(5-cyanopyridin-2-yl)-4-hydroxy-1-(2-morpholinoethyl)-2-oxo-N-(spiro[3.3]heptan-2-yl)-1,2-dihydro-1,8-naphthyridine-3-carboxamide] |  | > 1000 | 100 to 999 | 
4 | CC1CCC(NC(=O)c2c(O)c3cc(-c4ccc(C5CC5)cc4)cnc3n(CCN3CCOCC3)c2=O)CC1 (stereo not shown) [Compound 17, 6-(4-cyclopropylphenyl)-4-hydroxy-N-(4-methylcyclohexyl)-1-(2-morpholinoethyl)-2-oxo-1,2-dihydro-1,8-naphthyridine-3-carboxamide] |  | > 1000 | 100 to 999 | 
5 | O=C(NC12CC(C1)C2)c1c(O)c2cc(-c3cccnc3)cnc2n(CCN2CCOCC2)c1=O [Compound 123, N-(bicyclo[1.1.1]pentan-1-yl)-4-hydroxy-1-(2-morpholinoethyl)-2-oxo-6-(pyridin-3-yl)-1,2-dihydro-1,8-naphthyridine-3-carboxamide] | > 1000 | > 1000 |  | 
6 | CC1CCC(NC(=O)c2c(O)c3cc(-c4ccc(OC(C)C)cc4)cnc3n(CCN3CCOCC3)c2=O)CC1 (stereo not shown) [Compound 18, 4-hydroxy-6-(4-isopropoxyphenyl)-N-(4-methylcyclohexyl)-1-(2-morpholinoethyl)-2-oxo-1,2-dihydro-1,8-naphthyridine-3-carboxamide] | > 1000 | > 1000 |  | 
7 | O=C(NC1CC2(CCC2)C1)c1cc2cc(-c3ncccn3)cnc2n(CCN2CCOCC2)c1=O [Compound 38, 1-(2-morpholinoethyl)-2-oxo-6-(pyrimidin-2-yl)-N-(spiro[3.3]heptan-2-yl)-1,2-dihydro-1,8-naphthyridine-3-carboxamide] | < 100 |  |  | IC50 (human recombinant CB1R): 100 to 999 nM
8 | COc1ccc(-c2cnc3c(c2)c(O)c(C(=O)N[C@@H](C)c2ccc(F)cc2)c(=O)n3CCN2CCOCC2)cc1 [Compound 151, (S)—N-(1-(4-fluorophenyl)ethyl)-4-hydroxy-6-(4-methoxyphenyl)-1-(2-morpholinoethyl)-2-oxo-1,2-dihydro-1,8-naphthyridine-3-carboxamide] | > 1000 | > 1000 |  | 
9 | O=C(NC1(CO)CCCCC1)c1c(O)c2cc(-c3ccc(F)cc3)cnc2n(CCN2CCOCC2)c1=O [Compound 121, 6-(4-fluorophenyl)-4-hydroxy-N-(1-(hydroxymethyl)cyclohexyl)-1-(2-morpholinoethyl)-2-oxo-1,2-dihydro-1,8-naphthyridine-3-carboxamide] |  |  |  | IC50 (human CB2 receptor; membranes of HEK-293 cells with human recombinant CB2R, [3H]CP-55,940, read-out: CB2 IC50): 9 nM; IC50 (human recombinant CB1R; membranes of HEK-293 cells with human recombinant CB1R, [3H]CP-55,940, read-out: CB1 IC50): 2320 nM
10 | O=C(NC1CC2(CCC2)C1)c1c(O)c2cc(Br)cnc2n(Cc2ccc(F)cc2)c1=O [Compound 2, 6-bromo-1-(4-fluorobenzyl)-4-hydroxy-2-oxo-N-(spiro[3.3]heptan-2-yl)-1,2-dihydro-1,8-naphthyridine-3-carboxamide] |  | > 1000 | 100 to 999 | 
11 | O=C(NC1CC2(CCC2)C1)c1c(O)c2cccnc2n(CCN2CCOCC2)c1=O [Compound 135, 4-hydroxy-2-oxo-1-(2-morpholinoethyl)-N-(spiro[3.3]heptan-2-yl)-1,2-dihydro-1,8-naphthyridine-3-carboxamide] | < 100 | > 1000 |  | 
